# In US10392348B2, “2-oxo-3,4-dihydroquinoline compounds as plant growth regulators” (Syngenta Participations AG, priority 2015, dated 2019):
# Read-outs that look alike come from different tables or passages of the source.
# Tests used:
# [1] = system: soybean plants (variety S20-G7); experiment: Reduced plant water use in soybean (foliar spray, repeated weighing of pots); type: in vivo; details: vs negative control; for change in vivo at 500 µM / change in vivo at 31.25 µM / change in vivo at 125 µM: Glycine max, foliar; for % WU 0 DAA AM*: 0 DAA a.m.
# Outline: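 Compounds in blank EC formulation diluted in water with EXTRAVON 1 g/20 L, foliar-sprayed on 12-day-old soybean in growth chambers. Water use from repeated pot weighing at a.m./p.m. periods over 0-2 DAA, summed to cumulative 0-2.5 DAA; ANCOVA with pre-application baseline covariate, relative to blank-formulation control.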
# [2] = 0 h, Table B1, sprayed at 500 μM, 0 DAA a.m. (10:30-12:50), read-out: % WU 0 DAA AM
# [3] = 24 h, Table B1, sprayed at 500 μM, 1 DAA a.m. (7:30-12:50), read-out: % WU 1DAA AM
# [4] = 24 h, Table B1, sprayed at 500 μM, 1 DAA p.m. (14:00-19:50), read-out: % WU 1DAA PM
# [5] = 24 h, Table B2, rate 31.25 uM, 1 DAA a.m., read-out: % WU 1DAA AM
# [6] = 24 h, Table B2, rate 31.25 uM, 1 DAA p.m., read-out: % WU 1DAA PM
# [7] = 24 h, Table B2, rate 125 uM, 1 DAA a.m., read-out: % WU 1DAA AM
# [8] = 24 h, Table B2, rate 125 uM, 1 DAA p.m., read-out: % WU 1DAA PM
# [9] = 24 h, Table B2, rate 500 uM, 1 DAA a.m., read-out: % WU 1DAA AM
# [10] = 24 h, Table B2, rate 500 uM, 1 DAA p.m., read-out: % WU 1DAA PM
# [11] = 48 h, Table B1, sprayed at 500 μM, 2 DAA a.m. (07:30-12:50), read-out: % WU 2 DAA AM
# [12] = 48 h, Table B1, sprayed at 500 μM, 2 DAA p.m. (14:00-19:50), read-out: % WU 2 DAA PM
# [13] = 48 h, Table B2, rate 31.25 uM, 2 DAA a.m., read-out: % WU 2 DAA AM
# [14] = 48 h, Table B2, rate 31.25 uM, 2 DAA p.m., read-out: % WU 2 DAA PM
# [15] = 48 h, Table B2, rate 125 uM, 2 DAA a.m., read-out: % WU 2 DAA AM
# [16] = 48 h, Table B2, rate 125 uM, 2 DAA p.m., read-out: % WU 2 DAA PM
# [17] = 48 h, Table B2, rate 500 uM, 2 DAA a.m., read-out: % WU 2 DAA AM
# [18] = 48 h, Table B2, rate 500 uM, 2 DAA p.m., read-out: % WU 2 DAA PM
# [19] = 60 h, Table B1, sprayed at 500 μM, cumulative total WU (0-2.5 DAA), read-out: % WU Total 0 to 2.5 DAA
# [20] = 60 h, Table B2, rate 31.25 uM, cumulative total WU (0-2.5 DAA), read-out: % WU Total 0 to 2.5 DAA
# [21] = 60 h, Table B2, rate 125 uM, cumulative total WU (0-2.5 DAA), read-out: % WU Total 0 to 2.5 DAA
# [22] = 60 h, Table B2, rate 500 uM, cumulative total WU (0-2.5 DAA), read-out: % WU Total 0 to 2.5 DAA
melting point,Structure (SMILES),"change in vivo at 500 µM [1, 2]","change in vivo at 500 µM [1, 3]","change in vivo at 500 µM [1, 4]","change in vivo at 31.25 µM [1, 5]","change in vivo at 31.25 µM [1, 6]","change in vivo at 125 µM [1, 7]","change in vivo at 125 µM [1, 8]","change in vivo at 500 µM [1, 9]","change in vivo at 500 µM [1, 10]","change in vivo at 500 µM [1, 11]","change in vivo at 500 µM [1, 12]","change in vivo at 31.25 µM [1, 13]","change in vivo at 31.25 µM [1, 14]","change in vivo at 125 µM [1, 15]","change in vivo at 125 µM [1, 16]","change in vivo at 500 µM [1, 17]","change in vivo at 500 µM [1, 18]","change in vivo at 500 µM [1, 19]","change in vivo at 31.25 µM [1, 20]",further results
114 to 124 °C,"CCN1C(=O)CCc2cc(CNS(=O)(=O)c3ccccc3)ccc21 [Compound 2.001, N-[(1-ethyl-2-oxo-3,4-dihydroquinolin-6-yl)methyl]benzenesulfonamide]",-35.3%,-29.1%,-28.1%,-1.8%,-0.9%,-10.1%,-10.9%,-36.3%,-33.2%,-19.6%,-14.3%,-2.7%,-1.5%,-11.7%,-10.1%,-24.2%,-19.5%,-25.7%,-1.7%,"change in vivo at 125 µM [1, 21]: -11.1%; change in vivo at 500 µM [1, 22]: -31.8%; % WU 0 DAA AM* ([1]; Table B2, rate 31.25 uM): −0.7%; % WU 0 DAA AM* ([1]; Table B2, rate 125 uM): −10.4%; % WU 0 DAA AM* ([1]; Table B2, rate 500 uM): −41.2%"
155 to 163 °C,"CCN1C(=O)CCc2cc(CNS(=O)(=O)c3ccccc3F)ccc21 [Compound 2.007, N-[(1-ethyl-2-oxo-3,4-dihydroquinolin-6-yl)methyl]-2-fluoro-benzenesulfonamide]",-14.1%,-7.3%,-6.6%,,,,,,,-8.8%,-5.7%,,,,,,,-8.1%,,
190 to 191 °C,"CCN1C(=O)CCc2cc(CNS(=O)(=O)c3ccc(F)cc3)ccc21 [Compound 2.009, N-[(1-ethyl-2-oxo-3,4-dihydroquinolin-6-yl)methyl]-4-fluoro-benzenesulfonamide]",-5.3%,-2%,-1.2%,,,,,,,-3.1%,-1%,,,,,,,-2.3%,,
147 to 150 °C,"CCN1C(=O)CCc2cc(CNS(=O)(=O)c3ccc(OC)cc3)ccc21 [Compound 2.010, N-[(1-ethyl-2-oxo-3,4-dihydroquinolin-6-yl)methyl]-4-methoxy-benzenesulfonamide]",-15.2%,-2.6%,-1.7%,,,,,,,-3.6%,-2.4%,,,,,,,-4.3%,,
199 to 200 °C,"CCN1C(=O)CCc2cc(CNS(=O)(=O)c3ccc(C)cc3C)ccc21 [Compound 2.014, N-[(1-ethyl-2-oxo-3,4-dihydroquinolin-6-yl)methyl]-2,4-dimethyl-benzenesulfonamide]",-2.8%,-0.2%,-0.9%,,,,,,,-0.9%,-1.7%,,,,,,,-1.1%,,
159 to 161 °C,"CCCN1C(=O)CCc2cc(CNS(=O)(=O)c3ccccc3)ccc21 [Compound 3.001, N-[(2-oxo-1-propyl-3,4-dihydroquinolin-6-yl)methyl]benzenesulfonamide]",-15%,-9.9%,-6.7%,-6.9%,-5.4%,-15.7%,-15.3%,-36.4%,-33.3%,-7.2%,-5.8%,-5.8%,-2.2%,-9.3%,-6.3%,-21.4%,-15.1%,-8.8%,-5.7%,"change in vivo at 125 µM [1, 21]: -14.8%; change in vivo at 500 µM [1, 22]: -31.1%; % WU 0 DAA AM* ([1]; Table B2, rate 31.25 uM): −4.4%; % WU 0 DAA AM* ([1]; Table B2, rate 125 uM): −23.7%; % WU 0 DAA AM* ([1]; Table B2, rate 500 uM): −44.6%"
